The values below are quoted from earlier work in patent US20110038802A1, “METHOD OF DETERMINING ALANINE TRANSAMINASE (ALT) ACTIVITY BY 13C-MR DETECTION USING HYPERPOLARISED 13C-PYRUVATE” (priority 2008, published 2011).

The conditions of the series: human full blood, 37° C.

Take `CC(=O)C(=O)O` [^13C1-pyruvate, sodium ^13C1-pyruvate]: the T1 relaxation entry is “about 42 s”.
